The species named for assay [1] is Rattus norvegicus. Description: Uterotonic activity in rat. In kind it is functional.
The subject of another assay is Gallus gallus. Description: Effect on vasodepressor activity in conscious chicken. In kind it is functional.
The species named for assay [2] is Rattus norvegicus. Kind of assay: Antidiuretic activity in rat. In kind it is functional, Urine.
For assay [3], the species on record is Rattus norvegicus. Description: Effect on pressor response in rat. It counts as functional, organism-based.

These results are taken from ChEMBL document CHEMBL3244307, “Replacement of the disulfide bond in oxytocin by an amide group. Synthesis and some biological properties of (cyclo-(1-L-aspartic acid,6-L-alpha,beta-diaminopropionic acid))oxytocin” (1978).

Activity calls are given as the source filed them. The rule behind the calls is not given here. Where a SMILES comes first, the peptide text is derived from it. Bridges are numbered along the chain shown (N, C = ends). [ ]: non-standard residue; d: D form. ξ: configuration not given here. ξDap = NCC(N)C(=O)O; βAla = NCCC(=O)O

Regarding `CC[C@H](C)[C@@H]1NC(=O)[C@H](Cc2ccc(O)cc2)NC(=O)[C@@H](N)CC(=O)NCC(C(=O)N2CCC[C@H]2C(=O)N[C@@H](CC(C)C)C(=O)NCC(N)=O)NC(=O)[C@H](CC(N)=O)NC(=O)[C@H](CCC(N)=O)NC1=O` (stereo partly drawn) (H-DYIQN[ξDap]PLG-NH2; lactam 1-6), the Activity came to 16 U/mg in the assay listed under Rattus norvegicus [1], 6.6 U/mg in the assay with Gallus gallus and 5.6 U/mg in the assay filed under Rattus norvegicus [2]. Further, the result in the assay filed under Rattus norvegicus [3] was Active.
In the assay listed under Rattus norvegicus [1], `CC[C@H](C)[C@@H]1NC(=O)[C@H](Cc2ccc(O)cc2)NC(=O)CCNC(=O)C[C@@H](C(=O)N2CCC[C@H]2C(=O)N[C@@H](CC(C)C)C(=O)NCC(N)=O)NC(=O)[C@H](CC(N)=O)NC(=O)[C@H](CCC(N)=O)NC1=O` ([βAla]YIQNDPLG-NH2; lactam N-6) had an Activity of 1.13 U/mg.
For `CC[C@H](C)[C@@H]1NC(=O)[C@H](Cc2ccc(O)cc2)NC(=O)[C@@H](N)CSSC[C@@H](C(=O)N2CCC[C@H]2C(=O)N[C@@H](CC(C)C)C(=O)NCC(N)=O)NC(=O)[C@H](CC(N)=O)NC(=O)[C@H](CCC(N)=O)NC1=O` [OXYTOCIN], the results for the Activity in the assay listed under Rattus norvegicus [1], in the assay with Gallus gallus and in the assay filed under Rattus norvegicus [2] were 540 U/mg, 500 U/mg and 3 U/mg, respectively.
